Consider 16 molecules from US9670227B2, “Thienopyrimidine derivatives, a process for their preparation and pharmaceutical compositions containing them” (LES LABORATOIRES SERVIER, priority 2013, dated 2017).

In the first experiment the target is Mcl-1 protein (UniProtKB primary accession number: Q07820) (Homo sapiens, UniProt Q07820). Description: Inhibition of Mcl-1 by fluorescence polarisation, Method 1. The experiment is classed as binding. The note with it: fluorescence polarisation test; Method 1, or Method 2 where the value is underlined (underlining not visible); read-out: IC50 (M) Mcl-1 FP. An outline of the steps: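 Compounds were tested as 11-point serial dilutions at 5% final DMSO against 5 nM Mcl-1 with 1 nM fluorescein-labelled ligand in 10 mM HEPES, 150 mM NaCl, 0.05% Tween 20, pH 7.4. Relative binding potency was read by fluorescence polarisation.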
Mcl-1 protein, sequence (Q07820 whole entry): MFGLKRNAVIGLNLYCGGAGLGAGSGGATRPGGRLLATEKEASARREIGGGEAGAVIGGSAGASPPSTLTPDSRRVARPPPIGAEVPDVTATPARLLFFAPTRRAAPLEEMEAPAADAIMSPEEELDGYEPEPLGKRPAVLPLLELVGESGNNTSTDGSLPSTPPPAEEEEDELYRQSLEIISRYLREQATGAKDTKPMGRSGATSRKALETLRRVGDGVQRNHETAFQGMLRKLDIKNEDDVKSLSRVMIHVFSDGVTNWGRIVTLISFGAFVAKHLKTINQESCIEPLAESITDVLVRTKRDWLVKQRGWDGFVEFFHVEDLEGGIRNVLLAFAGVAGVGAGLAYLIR
The term IC50 denotes the midpoint of a concentration-inhibition curve. For `Cc1c(-c2c(-c3ccc(F)cc3)sc3ncnc(OC(Cc4ccccc4OCc4ccnc(-c5ccccc5F)n4)C(=O)OCC(=O)N(C)C)c23)ccc(OCCN2CCN(C)CC2)c1Cl` [Example 816, 2-(dimethylamino)-2-oxoethyl (2R)-2-{[(5Sa)-5-{3-chloro-2-methyl-4-[2-(4-methylpiperazin-1-yl)ethoxy]phenyl}-6-(4-fluorophenyl)thieno[2,3-d]pyrimidin-4-yl]oxy}-3-(2-{[2-(2-fluorophenyl)pyrimidin-4-yl]methoxy}phenyl)propanoate], the half-inhibitory concentration (IC50) turned out to be 1.72e-07 M.

Take `COc1ccccc1CC(Oc1ncnc2sc(-c3ccc(F)cc3)c(-c3ccc(OCCN4CCN(C)CC4)c(Cl)c3C)c12)C(=O)OCC(=O)N(C)C` [Example 844, 2-(dimethylamino)-2-oxoethyl (2R)-2-{[(5Sa)-5-{3-chloro-2-methyl-4-[2-(4-methylpiperazin-1-yl)ethoxy]phenyl}-6-(4-fluorophenyl)thieno[2,3-d]pyrimidin-4-yl]oxy}-3-(2-methoxyphenyl)propanoate]: the IC50 amounted to 1.67e-06 M.

As to `CCOC(=O)C(Cc1ccccc1OCc1ccnc(-c2ccccc2F)n1)Oc1ncnc2sc(-c3ccc(F)cc3)c(-c3ccc(OCCN4CCN(C)CC4)c(Cl)c3C)c12` [Example 797, ethyl (2R)-2-{[(5Sa)-5-{3-chloro-2-methyl-4-[2-(4-methylpiperazin-1-yl)ethoxy]phenyl}-6-(4-fluorophenyl)thieno[2,3-d]pyrimidin-4-yl]oxy}-3-(2-{[2-(2-fluorophenyl)pyrimidin-4-yl]methoxy}phenyl)propanoate], the IC50 came out at 2.75e-06 M.

The experiment is the same for the next values; noted with them: fluorescence polarisation test; Method 2 values are underlined in the patent (underlining not visible here); read-out: IC50 (M) Mcl-1 FP.
As for `Cc1c(-c2c(-c3ccc(F)cc3)sc3ncnc(OC(Cc4ccccc4OCc4ccnn4CC(F)(F)F)C(=O)O)c23)ccc(OCCN2CCN(C)CC2)c1Cl` [Example 77, (2R)-2-{[(5Sa)-5-{3-chloro-2-methyl-4-[2-(4-methylpiperazin-1-yl)ethoxy]phenyl}-6-(4-fluorophenyl)thieno[2,3-d]pyrimidin-4-yl]oxy}-3-(2-{[1-(2,2,2-trifluoroethyl)-1H-pyrazol-5-yl]methoxy}phenyl)propanoic acid], the concentration for half-maximal inhibition (IC50) was determined as 5.9e-09 M.

For the molecule `COc1ccccc1CC(Oc1ncnc2sc(-c3ccco3)c(-c3ccc(OCC[N+]4([O-])CC[N+](C)([O-])CC4)c(Cl)c3C)c12)C(=O)O` [Example 297, (2R)-2-{[(5Sa)-5-{3-chloro-2-methyl-4-[2-(4-methyl-1,4-dioxidopiperazin-1-yl)ethoxy]phenyl}-6-(furan-2-yl)thieno[2,3-d]pyrimidin-4-yl]oxy}-3-(2-methoxyphenyl)propanoic acid], the half-maximal inhibitory concentration (IC50) was 6.6e-09 M.

As for `Cc1c(-c2c(-c3ccco3)sc3ncnc(O[C@H](Cc4ccccc4C(F)(F)F)C(=O)O)c23)ccc(OCCN2CCN(C)CC2)c1Cl` [Example 353, (2R)-2-{[(5Sa)-5-{3-chloro-2-methyl-4-[2-(4-methylpiperazin-1-yl)ethoxy]phenyl}-6-(furan-2-yl)thieno[2,3-d]pyrimidin-4-yl]oxy}-3-[2-(trifluoromethyl)phenyl]propanoic acid], the IC50 is 2.8e-08 M.

The experiment is the same for the next values; noted with them: fluorescence polarisation; Method 1, or Method 2; read-out: IC50 (M) Mcl-1 FP.
For `COc1ccccc1CC(Oc1ncnc2sc(-c3ccc(F)c(F)c3F)c(-c3ccc(OCCN4CCN(C)CC4)c(Cl)c3C)c12)C(=O)O` [Example 537, (2R)-2-{[(5Sa)-5-{3-chloro-2-methyl-4-[2-(4-methylpiperazin-1-yl)ethoxy]phenyl}-6-(2,3,4-trifluorophenyl)thieno[2,3-d]pyrimidin-4-yl]oxy}-3-(2-methoxyphenyl)propanoic acid], the IC50 worked out at 4.3e-08 M.

Consider `Cc1c(-c2c(-c3ccco3)sc3ncnc(OC(Cc4ccccc4)C(=O)O)c23)ccc(OCCN2CCN(C)CC2)c1Cl` [Example 504, (2R)-2-{[(5Sa)-5-{3-chloro-2-methyl-4-[2-(4-methylpiperazin-1-yl)ethoxy]phenyl}-6-(furan-2-yl)thieno[2,3-d]pyrimidin-4-yl]oxy}-3-phenylpropanoic acid], for which the IC50 amounted to 2.9e-08 M.

In the case of `Cc1c(-c2c(-c3ccncc3)sc3ncnc(OC(Cc4ccccc4)C(=O)O)c23)ccc(OCCN2CCN(C)CC2)c1Cl` [Example 507, (2R)-2-{[(5Sa)-5-{3-chloro-2-methyl-4-[2-(4-methylpiperazin-1-yl)ethoxy]phenyl}-6-(pyridin-4-yl)thieno[2,3-d]pyrimidin-4-yl]oxy}-3-phenylpropanoic acid], the IC50 was found to be 2.2e-07 M.

In the case of `COC(=N)c1ccc(-c2sc3ncnc(OC(Cc4ccccc4OC)C(=O)O)c3c2-c2ccc(OCCN3CCN(C)CC3)c(Cl)c2C)o1` [Example 580, (2R)-2-[((5Sa)-5-{3-chloro-2-methyl-4-[2-(4-methylpiperazin-1-yl)ethoxy]phenyl}-6-[5-(methoxycarbonoimidoyl)furan-2-yl]thieno[2,3-d]pyrimidin-4-yl)oxy]-3-(2-methoxyphenyl)propanoic acid], the IC50 amounted to 3.7e-08 M.

Turning to `CCc1sc2ncnc(OC(Cc3ccccc3)C(=O)O)c2c1-c1cc(Cl)c(O)cc1C` [Example 439, (2R)-2-{[(5Ra)-5-(5-chloro-4-hydroxy-2-methylphenyl)-6-ethylthieno[2,3-d]pyrimidin-4-yl]oxy}-3-phenylpropanoic acid], the IC50 is 2.5e-07 M.

Turning to `COc1cnc(C)cc1-c1nccc(COc2ccccc2CC(Oc2ncnc3sc(-c4ccc(F)cc4)c(-c4ccc(OCCN5CCN(C)CC5)c(Cl)c4C)c23)C(=O)O)n1` [Example 734, (2R)-2-{[(5Sa)-5-{3-chloro-2-methyl-4-[2-(4-methylpiperazin-1-yl)ethoxy]phenyl}-6-(4-fluorophenyl)thieno[2,3-d]pyrimidin-4-yl]oxy}-3-(2-{[2-(5-methoxy-2-methylpyridin-4-yl)pyrimidin-4-yl]methoxy}phenyl)propanoic acid], the IC50 worked out at 9.48e-10 M.

For the molecule `CC/C=C\c1sc2ncnc(O[C@H](Cc3ccccc3)C(=O)O)c2c1-c1ccc(OCCN2CCN(C)CC2)c(Cl)c1C` [Example 493, (2R)-2-[(6-[(1Z)-but-1-en-1-yl]-(5Sa)-5-{3-chloro-2-methyl-4-[2-(4-methylpiperazin-1-yl)ethoxy]phenyl}thieno[2,3-d]pyrimidin-4-yl)oxy]-3-phenylpropanoic acid], the IC50 was determined as 5e-09 M.

With `CC#Cc1sc2ncnc(OC(Cc3ccccc3)C(=O)O)c2c1-c1ccc(OCCN2CCN(C)CC2)c(Cl)c1C` [Example 519, (2R)-2-{[(5Sa)-5-{3-chloro-2-methyl-4-[2-(4-methylpiperazin-1-yl)ethoxy]phenyl}-6-(prop-1-yn-1-yl)thieno[2,3-d]pyrimidin-4-yl]oxy}-3-phenylpropanoic acid], the concentration for half-maximal inhibition (IC50) was determined as 2.3e-08 M.

Still in this experiment, the particulars now being: partial inhibitors; @ 1 uM test compound.
Take `COc1nccc(COc2ccccc2C[C@@H](Oc2ncnc3sc(-c4ccc(F)c(OCCN(C)C)c4)c(-c4ccc(OC)c(Cl)c4C)c23)C(=O)O)n1` [Example 701, (2R)-2-{[(5Ra)-5-(3-chloro-4-methoxy-2-methylphenyl)-6-{3-[2-(dimethylamino)ethoxy]-4-fluorophenyl}thieno[2,3-d]pyrimidin-4-yl]oxy}-3-{2-[(2-methoxypyrimidin-4-yl)methoxy]phenyl}propanoic acid]: the “percentage fluorescence polarisation inhibition, Mcl-1 FP” value stood at 40.75% @ 1 uM.

The experiment is the same for the next values; noted with them: partial inhibitors; @ 10 uM test compound.
For `CCOC(=O)[C@@H](Cc1ccccc1OCC(F)(F)F)Oc1ncnc2sc(-c3ccc(F)cc3)c(-c3ccc(OCCN4CCN(C)CC4)c(Cl)c3C)c12` [Example 635, ethyl (2R)-2-{[(5Sa)-5-{3-chloro-2-methyl-4-[2-(4-methylpiperazin-1-yl)ethoxy]phenyl}-6-(4-fluorophenyl)thieno[2,3-d]pyrimidin-4-yl]oxy}-3-[2-(2,2,2-trifluoroethoxy)phenyl]propanoate], the “percentage fluorescence polarisation inhibition, Mcl-1 FP” value came to 50.75% @ 10 uM.
